Experimental findings from article PMC9873984, “Membrane cholesterol regulates inhibition and substrate transport by the glycine transporter, GlyT2” (Life Science Alliance, 2023) are described below.

Test [1] concerns the target GlyT2 L198A mutant (Homo sapiens, UniProt Q9Y345, L198A). From the text:
(§1) GlyT2a (referred to herein as GlyT2) was subcloned into the plasmid oocyte transcription vector (pOTV) for expression in Xenopus laevis oocytes. Oligonucleotide primers incorporating desired mutations were synthesized by Sigma-Aldrich and used to generate point mutations in the GlyT2 cDNA/pOTV construct using the Q5 site-directed mutagenesis kit (New England Biolabs [Genesearch]). Amplified PCR products were transformed into chemically competent E. coli cells and purified using the GeneJET Plasmid Miniprep Kit (Thermo Fisher Scientific). Purified plasmid DNA was sequence-verified by the Australian Genome Research Facility. pOTV constructs were linearized with the restriction enzyme SpeI (New England Biolabs [Genesearch]), and RNA was transcribed by T7 RNA polymerase using the mMESSAGE mMACHINE T7 kit (Thermo Fisher Scientific).
(§2) The transport activity of GlyT2 is an electrogenic process as it couples the transport of glycine to the co-transport of 3 Na^+ and 1 Cl^− and thus can be measured using two-electrode voltage-clamp electrophysiology. Oocytes expressing GlyTs were voltage-clamped at −60 mV, and glycine-induced whole-cell currents were measured using a GeneClamp 500 amplifier (Axon Instruments), and a PowerLab 2/26 chart recorder (ADInstruments) and LabChart Software (ADInstruments).
(§3) Functionality of WT and mutant GlyT2 transporters was assessed by applying increasing concentrations of glycine (1–3,000 µM) in ND96 until a stable current was achieved. Glycine concentrations were applied individually and completely removed from the system via washing with recording buffer before proceeding to the next concentration. EC50 values for each transporter were determined by fitting concentration–response data to the modified Michaelis–Menten equation: I=([Gly].Imax)/(EC50+[Gly]), where I is current in nA, [Gly] is the concentration of glycine, Imax is the current generated by a maximal concentration of glycine, and EC50 is the concentration of glycine that generates a half-maximal current.

In test [2] the target is T1, GlyT2 T512A mutant (Homo sapiens, UniProt Q9Y345, T512A).
T1 sequence (Q9Y345 1-797 T512A): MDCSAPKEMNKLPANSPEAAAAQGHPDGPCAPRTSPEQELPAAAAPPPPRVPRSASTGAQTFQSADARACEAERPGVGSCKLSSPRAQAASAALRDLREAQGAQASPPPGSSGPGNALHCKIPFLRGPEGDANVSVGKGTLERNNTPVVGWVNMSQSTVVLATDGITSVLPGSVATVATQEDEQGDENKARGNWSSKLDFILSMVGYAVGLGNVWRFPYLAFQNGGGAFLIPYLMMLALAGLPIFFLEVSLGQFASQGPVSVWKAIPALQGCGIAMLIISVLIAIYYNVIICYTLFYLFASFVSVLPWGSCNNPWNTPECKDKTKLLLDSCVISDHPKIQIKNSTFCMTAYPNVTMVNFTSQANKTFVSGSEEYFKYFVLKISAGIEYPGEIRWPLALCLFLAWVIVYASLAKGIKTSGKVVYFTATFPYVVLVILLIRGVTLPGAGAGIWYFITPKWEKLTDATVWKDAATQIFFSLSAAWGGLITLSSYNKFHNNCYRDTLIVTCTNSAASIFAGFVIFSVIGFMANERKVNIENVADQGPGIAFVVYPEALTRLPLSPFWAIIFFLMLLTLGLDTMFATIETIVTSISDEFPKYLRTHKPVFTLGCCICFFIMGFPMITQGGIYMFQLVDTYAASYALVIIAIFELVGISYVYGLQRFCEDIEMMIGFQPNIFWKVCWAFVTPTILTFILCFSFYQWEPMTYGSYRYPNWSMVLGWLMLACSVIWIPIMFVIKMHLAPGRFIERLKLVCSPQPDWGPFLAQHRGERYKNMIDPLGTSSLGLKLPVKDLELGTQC
Excerpt: as §1, §2, §3

The target in test [3] is GlyT2 F515V mutant (Homo sapiens, UniProt Q9Y345, F515V). Conditions: read-out: Glycine EC50; F515V (TM7).
Excerpt: as §1, §2, §3

The target in test [4] is T2, GlyT2 F515W mutant (Homo sapiens, UniProt Q9Y345, F515W).
T2 sequence (Q9Y345 1-797 F515W): T1 sequence (Q9Y345 1-797 T512A) with A512T, F515W
Conditions: read-out: Glycine EC50; F515W (TM7).
Excerpt: as §1, §2, §3

A word on the EC50: it is the concentration at which the effect is half-maximal.

Numbering of substitutions follows the chain as printed.

Sequence of GlyT2 L198A mutant (Q9Y345 whole entry L198A): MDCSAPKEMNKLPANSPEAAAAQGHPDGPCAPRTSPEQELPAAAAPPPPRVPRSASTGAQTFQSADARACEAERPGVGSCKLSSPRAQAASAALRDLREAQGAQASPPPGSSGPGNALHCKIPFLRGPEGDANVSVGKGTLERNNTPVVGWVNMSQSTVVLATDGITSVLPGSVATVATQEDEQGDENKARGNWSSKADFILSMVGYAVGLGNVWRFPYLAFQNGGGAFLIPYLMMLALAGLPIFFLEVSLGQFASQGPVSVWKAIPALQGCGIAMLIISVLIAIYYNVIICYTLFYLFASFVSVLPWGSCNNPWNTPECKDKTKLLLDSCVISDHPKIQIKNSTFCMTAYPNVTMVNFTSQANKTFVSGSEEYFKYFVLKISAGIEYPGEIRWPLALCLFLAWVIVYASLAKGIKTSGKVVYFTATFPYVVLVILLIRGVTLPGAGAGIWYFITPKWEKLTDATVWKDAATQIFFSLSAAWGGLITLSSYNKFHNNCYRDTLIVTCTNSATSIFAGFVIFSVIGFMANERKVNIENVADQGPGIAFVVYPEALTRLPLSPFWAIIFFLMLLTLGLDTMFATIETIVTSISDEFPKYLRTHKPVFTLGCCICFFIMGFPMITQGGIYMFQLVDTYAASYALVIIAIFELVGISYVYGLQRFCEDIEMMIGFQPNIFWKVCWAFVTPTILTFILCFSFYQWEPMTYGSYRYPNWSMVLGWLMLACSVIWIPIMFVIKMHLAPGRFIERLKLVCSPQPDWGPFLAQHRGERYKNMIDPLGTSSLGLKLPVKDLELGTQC
Sequence of GlyT2 F515V mutant (Q9Y345 whole entry F515V): as the sequence (Q9Y345 whole entry L198A) above, with A198L, F515V counted along it

Consider `NCC(=O)O` [Glycine, glycine], for which the “Increase of glycine EC50 compared to WT” value in test [1] (L198A vs WT) is reported as 1.5 fold. The EC50 in test [1] (read-out: Glycine EC50, L198A (TM1)) was determined as 28 µM; in test [2] (read-out: Glycine EC50, T512A (TM7)), 90 µM; in test [3], 7.8 µM; in test [4], 7.6 µM. Besides, the “Reduction in apparent glycine affinity compared to WT” value in test [2] (T512A vs WT) is recorded as 4.8 fold.
